Results taken from patent publication US9850366B2, “Epdxidized fatty acid alkyl ester plasticizers and methods for making epdxidized fatty acid alkyl ester plasticizers” (Dow Global Technologies LLC, priority 2012, dated 2017).

Key:
[1] = Water solubility (water content of plasticizer by Karl Fischer titration after mixing with water); assay type: physicochemical; conditions: Table 1; water uptake of plasticizer at room temperature
Procedure: Water Solubility 20 mL of plasticizer is taken in a beaker and mixed with equal volume of distilled water. The mixture is stirred vigorously at room temperature and allowed to settle in a separating funnel. The mixture forms an emulsion which takes approximately 24 hours to form separate layers of organic and aqueous phases. After 48 hours, the two layers are separated. The aqueous layer is drained and the organic layer containing plasticizer and some water is recovered. The organic layer contains water in dissolved form as well as in the fine emulsion form. This layer is centrifuged at 7000 rpm for one hour. This step separates water trapped in the plasticizer in dispersed form. The plasticizer is further analyzed for water content with the help of wet chemistry methods. Carl Fischer titration method is used to determine the water content in plasticizer.

[2] = Solution temperature of PVC in plasticizer (DIN 53408); assay type: physicochemical; conditions: 0.6 g PVC in 15 mL plasticizer, heated at 1° C./min
Procedure: In various embodiments, the polymeric resin (such as PVC) has a solution temperature in the above-described plasticizer of less than 180° C., less than 170° C., or less than 160° C., as determined by Deutsches Institut für Normung (“DIN”) standard method 53 408.
Determine solution temperature in accordance with Deutsches Institut für Normung (“DIN”) 53408. Important test parameters such as the PVC/plasticizer amount and heating rate are optimized to be able to capture differences in solution temperature of different plasticizers in PVC. 0.6 g PVC is accurately weighed in a 20-mL glass vial and 15 mL of plasticizer is added to the PVC. The contents of the glass vial are stirred using a magnetic stirrer and heated using an oil bath at 1° C./min. A thermometer is used to record the temperature of the PVC/plasticizer mixture which is illuminated with a flash-light. When PVC is mixed with a plasticizer, a milky solution is generally obtained. As the temperature of the PVC/plasticizer mixture is raised, the PVC starts to imbibe the plasticizer and becomes translucent. As the temperature is raised further, the PVC particles swell and lose their shape forming a gel. At the solution temperature, a clear solution is obtained.

[3] = assay type: physicochemical
Procedure: Solubility in PVC is determined according to American Society for Testing and Materials (“ASTM”) method D 3367-98. […] Water solubility of the epoxidized fatty acid alkyl ester is determined according to the procedures described in the Test Methods section, below. Solubility in PVC Measure solubility in PVC according to ASTM D 3367-98. Test parameters, such as the design of centrifuge tubes, soak temperature, soak time, drainage of plasticizer, and centrifuge speed to remove excess plasticizer, are optimized to be able to capture differences in plasticizer absorption and solubilities of different plasticizers in PVC. Centrifuge tubes with a 0.8 mm diameter hole at the bottom are used for the test. […] During the soak time, the plasticizer molecules wet the cell walls of PVC particles and penetrate through it due to its porosity. Once inside, the molecules start filling the void space. After the void space is completely filled with plasticizer, the PVC primary particles start absorbing the plasticizer. This absorption is relatively slow and continues until the primary particles reach saturation limit. It is therefore important to optimize the PVC/plasticizer soaking temperature and time. […] The plasticizer absorbed by PVC is measured from the weight gain of PVC (after accounting for weight gain due to plasticizer absorbed by cotton).

Compound | Water solubility (%) [1] | Solution temperature (° C.) [2] | Solubility in PVC (g/100 g PVC) [3]
CCCCCCCCC1OC1CCCCCCCC(=O)OC (stereo not drawn) [Sample S1, epoxidized methyl oleate] | 0.68% | 114 °C | –
CCCCCC1OC1CC1OC1CCCCCCCC(=O)OC (stereo not drawn) [Sample S2, epoxidized methyl linoleate] | – | 88 °C | 244 g/100 g PVC
CCCCCCCC[C@H]1O[C@H]1CCCCCCCC(=O)OC(C)C [Sample S7] | – | 134 °C | 34.1 g/100 g PVC

Further lines, results first:

Water solubility (%) [1] | Solution temperature (° C.) [2] | Solubility in PVC (g/100 g PVC) [3] | Compound
– | 124 °C | – | epoxidized methyl linolenate [CS2, reference compound]
– | 98 °C | – | epoxidized methyl linolenate [CS3, reference compound]
– | 98 °C | – | epoxidized methyl linolenate [CS4, reference compound]
